From article PMC6930524, “A Prospective Repurposing of Dantrolene as a Multitarget Agent for Alzheimer’s Disease” (Molecules, 2019)

Legend:
[1] = set-up: method as in PMID 11735355; settings: cited from earlier work
human MAO B (hMAO B) = molecular target: T1, human MAO B (hMAO B) (Homo sapiens, UniProt P27338); assay: biochemical
T1 construct: purchased Sigma-Aldrich Europe (Milan, Italy); host or cells: baculovirus infected insect cells (microsomes)
T1 sequence (P27338 1-520): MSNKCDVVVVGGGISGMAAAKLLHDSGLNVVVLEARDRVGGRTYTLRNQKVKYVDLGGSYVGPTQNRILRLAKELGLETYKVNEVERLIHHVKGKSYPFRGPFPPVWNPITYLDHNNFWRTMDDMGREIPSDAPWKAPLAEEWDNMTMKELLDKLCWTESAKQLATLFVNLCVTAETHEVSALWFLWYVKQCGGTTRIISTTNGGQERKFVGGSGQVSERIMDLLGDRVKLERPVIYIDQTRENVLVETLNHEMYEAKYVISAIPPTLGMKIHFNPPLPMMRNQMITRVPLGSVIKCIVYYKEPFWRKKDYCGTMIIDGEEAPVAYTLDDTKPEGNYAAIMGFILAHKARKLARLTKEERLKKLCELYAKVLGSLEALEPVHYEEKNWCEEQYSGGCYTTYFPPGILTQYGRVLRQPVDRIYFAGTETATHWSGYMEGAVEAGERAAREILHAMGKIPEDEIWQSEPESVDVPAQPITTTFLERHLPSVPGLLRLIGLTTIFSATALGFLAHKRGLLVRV
Excerpt: Routine kynuramine fluorescence [29] and Ellman’s spectrophotometric [30, 31] assays were used for in vitro inhibition of human MAO B (hMAO B) and acetylcholinesterase (hAChE), respectively. Selectivity over the corresponding isoforms hMAO A and butyrylcholinesterase (hBChE) was also verified.
An already published protocol using human recombinant monoamine oxidases A (250 U/mg) and B (59 U/mg; microsomes from baculovirus infected insect cells) [29] was used by applying a 96-well plate technique (instrument Infinite M1000 Pro, Tecan, Cernusco s.N., Italy). Briefly, compounds at a concentration ranging from 30 to 0.01 μM were preincubated 20 min at 37 °C with substrate kynuramine, in phosphate buffer 8.0 made 0.39 osmolar with KCl. After addition of enzyme and further 30 min of incubation, NaOH was added and the fluorescence read at 310/400 excitation/emission wavelength. Experiments were performed in duplicates in black, flat-bottomed polystyrene 96-well microtiter plates (Greiner Bio-One GmbH, Frickenhausen, Germany). […] Inhibition values and kinetics were calculated by means of Prism (GraphPad Prism version 5.00 for Windows, GraphPad Software, San Diego, CA, USA).

[2] = molecular target: T2, recombinant wild-type (WT) CAC (Rattus norvegicus, UniProt P97521); assay: Transport activity of purified recombinant WT CAC reconstituted into liposomes; type: biochemical
T2 construct: made in house; host or cells: Escherichia coli C0214
T2 sequence (P97521 1-301): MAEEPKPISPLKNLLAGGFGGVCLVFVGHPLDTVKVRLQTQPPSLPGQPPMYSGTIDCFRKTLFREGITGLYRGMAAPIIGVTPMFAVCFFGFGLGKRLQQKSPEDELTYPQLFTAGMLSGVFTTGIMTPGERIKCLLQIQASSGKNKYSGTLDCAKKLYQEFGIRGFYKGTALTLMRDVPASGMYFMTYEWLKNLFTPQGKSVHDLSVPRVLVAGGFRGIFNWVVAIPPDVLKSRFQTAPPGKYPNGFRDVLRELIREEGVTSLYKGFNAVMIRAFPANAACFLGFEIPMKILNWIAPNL
Procedure: To detect the effect of DAN on native CAC, mitochondrial extract was reconstituted into liposomes and transport activity was measured adding various concentrations of compound. In Figure 7A, the dose–response curve is shown. […] Thus, the effect of different concentrations of DAN was tested also on the purified recombinant wild-type (WT) CAC carrier reconstituted into liposomes, measuring the antiport rate of carnitine.
The reducing properties of DAN were studied on the recombinant WT CAC with the protein at different states of oxidation. Figure 8B highlights that when the carrier was incubated during the transport activity with 1 mM dithioerythritol (DTE), 10 µM DAN was able to reduce a major aliquot of oxidized protein (70% recovery of activity compared to the control). […] To identify the cysteines responsible for the activation of the CAC carrier, the proteoliposomes of the WT protein and the mutants C136S, C155S, C136/155S, and C-lessV (C23V/C58V/C89S/C136V/C155V/C283S) were incubated with 10 μM DAN. […] Further evidence of the reducing action of DAN on CAC was obtained by oxidation of the reconstituted WT protein under controlled conditions, i.e., in the presence or absence of hydrogen peroxide and its subsequent degradation by the enzyme catalase. […] The addition of 20 µM DAN led to a significant recovery (about 80%) of the transport function, after treatment of the carrier with H2O2.
The previously constructed pMW7-WTrat CAC recombinant plasmid was used as a template to introduce mutations in the CAC protein using complementary mutagenic primers and the High Fidelity PCR System (Roche, Basel, Switzerland). The PCR products were purified by the QIAEX II Gel Extraction Kit (QIAGEN, Milan, Italy), digested with the restriction enzymes Nde I and Hind III (New England Biolabs, Ipswich, MA, USA) and ligated into the pMW7 cloning vector (given as a gift). All resulting pMW7-rat CAC constructs were verified by DNA sequencing. Except for the desired base changes, all the sequences corresponded to the CAC coding sequence. Bacterial overexpression was obtained using the expression vector of Escherichia coli C0214 (given as a gift). Wild-type and mutants rat CAC inclusion body fractions were isolated from E. coli, solubilized, and purified as previously described.
Mitochondrial rat liver extract (0.3 mg proteins in 3% Triton X-100) containing native CAC was reconstituted into liposomes by removing the detergent from the mixed micelles through a hydrophobic ion-exchange column containing the resin Amberlite XAD-4, as described previously. The reconstitution mixture of mitochondrial or recombinant CAC proteins was composed of protein, 1% Triton X-100, 10 mg of egg yolk phospholipids (L-α-phosphatidylcholine from fresh turkey egg yolk), in the form of sonicated liposomes, 30 mM NaH2PO4 at pH 7.0, 15 mM carnitine, in a final volume of 680 μL. This mixture was passed 15 times, at room temperature, through the same Amberlite column (Pasteur pipette filled with 0.5 g resin) pre-equilibrated with a buffer containing 30 mM NaH2PO4 at pH 7.0 and 15 mM carnitine.
Before starting the transport activity, proteoliposomes were passed through a Sephadex G-75 column (0.7 cm diameter; 15 cm height; Pharmacia, Milan, Italy) to remove the external substrate. The turbid eluate (550 μL) from the Sephadex column was collected and used for transport measurement by the inhibitor-stop method. For uptake measurements, transport at 25 °C was started by adding 0.1 mM [^3H]-carnitine to proteoliposomes and stopped by the addition of 0.1 mM NEM. In control samples, the inhibitor was added together with the labeled substrate at time zero. The experimental values were corrected by subtracting control values. […]

**Q.** With `O=C1CN(/N=C/c2ccc(-c3ccc([N+](=O)[O-])cc3)o2)C(O)=N1` [Dantrolene] as the compound, how does the “antioxidant potency, inhibition of Fe2+/thiocyanate peroxidation of linoleic acid” value [1] read?
**A.** high antioxidant potency

**Q.** What about the IC50 (human MAO B (hMAO B)) of the same compound?
**A.** 2.69 ± 0.44 µM

**Q.** And the “hMAO B inhibition mechanism” value (human MAO B (hMAO B); Michaelis–Menten / Lineweaver–Burk, substrate kynuramine)?
**A.** comp.

**Q.** What about the Ki (human MAO B (hMAO B); substrate kynuramine, mean ± SEM) of the same compound?
**A.** 0.96 ± 0.09 µM

**Q.** And the “transport activity of WT CAC over time compared to the control” value ([2]; 10 μM, average values over time intervals)?
**A.** around 160%

**Q.** What about the “recovery of activity compared to the control” value ([2]; 10 µM, carrier incubated with 1 mM DTE) of the same compound?
**A.** 70%

**Q.** What about the recovery of activity ([2]; 10 µM, carrier incubated with 50 mM DTE) of the same compound?
**A.** 25%

**Q.** And the “increase in transport activity on WT” value ([2]; 10 μM, proteoliposomes of WT protein)?
**A.** 180%

**Q.** What about the “recovery of the transport function after H2O2” value ([2]; 20 µM, after 1 mM H2O2 for 10 min at 37 °C (activity decreased to about 50% without compound)) of the same compound?
**A.** about 80%

**Q.** And the EC50 ([2]; after 30 min of incubation, read-out: EC50 of activation of recombinant WT CAC)?
**A.** 9.3 ± 3.1 µM

**Q.** What about the “concentration for whole activation of the WT protein” value ([2]; dose–response curve, 30 min) of the same compound?
**A.** above 50 μM
